Test results reported in patent publication US20230181520A1, “USE OF HYDROPEROXY ALCOHOLS AND THE DERIVATIVES THEREOF AS ANTIMICROBIAL AGENTS” (DEMETA, priority 2019, published 2023).

Tests used:
Format in all cases: cell-based
[1] = test system: Enterococcus hirae; experiment: Surface antibacterial test, CFU count on support; details: E. hirae; 24 h of contact at ambient temperature; sample solution 10 000 ppm in DMSO dried on inert support
Procedure: (§1) The tests were carried out at the surface: a solution of sample at 10 000 ppm in DMSO for a sample of HPA at 72% purity (i.e. […] of active material) was dried on an inert support. Once the solution had dried, a volume of inoculum of each bacterial strain was placed on the support in contact with the sample for 0 and 24 h at ambient temperature. In order to verify the nontoxicity of the DMSO, a pure solution of DMSO was dried on the support under the same conditions as the samples. A nontreated support (noted support control in FIG. 1) was also inoculated, in order to verify the stability of the strains under the conditions of the test. In order to quantify the contamination at each measurement time, a count was performed by spreading out, at the surface or in the mass, of decimal dilutions of the sample on TSA agar or Columbia agar (for C. acnes). The results were expressed in “colony-forming units” (CFUs) on the support. The Bacterial Strains Targeted are: Gram+: Cutibacterium acnes, Enterococcus hirae, Staphylococcus aureus

[2] = test system: Staphylococcus aureus; experiment: Surface antibacterial test, CFU count on support; details: S. aureus; 24 h of contact at ambient temperature; sample solution 10 000 ppm in DMSO dried on inert support
Procedure: as §1

[3] = test system: Cutibacterium acnes; experiment: Surface antibacterial test, CFU count on support (Columbia agar); details: C. acnes; 24 h of contact at ambient temperature; sample solution 10 000 ppm in DMSO dried on inert support
Procedure: as §1

[4] = test system: Pseudomonas aeruginosa; experiment: Surface antibacterial test, CFU count on support; details: P. aeruginosa; 24 h of contact at ambient temperature; sample solution 10 000 ppm in DMSO dried on inert support
Procedure: The tests were carried out at the surface: a solution of sample at 10 000 ppm in DMSO for a sample of HPA at 72% purity (i.e. […] of active material) was dried on an inert support. Once the solution had dried, a volume of inoculum of each bacterial strain was placed on the support in contact with the sample for 0 and 24 h at ambient temperature. In order to verify the nontoxicity of the DMSO, a pure solution of DMSO was dried on the support under the same conditions as the samples. A nontreated support (noted support control in FIG. 1) was also inoculated, in order to verify the stability of the strains under the conditions of the test. In order to quantify the contamination at each measurement time, a count was performed by spreading out, at the surface or in the mass, of decimal dilutions of the sample on TSA agar or Columbia agar (for C. acnes). The results were expressed in “colony-forming units” (CFUs) on the support. The Bacterial Strains Targeted are: Gram−: Pseudomonas aeruginosa

With “9(10)-hydroperoxy-10(9)-hydroxystearic acid [hydroperoxy alcohol of oleic acid]” the “logarithmic reduction of the population relative to t=0” value [1] was “approximately 5 log 10”, the “logarithmic reduction of the population relative to t=0” value [2] was “approximately 5 log 10” and the “logarithmic reduction of the population relative to t=0” value [3] was “approximately 6 log 10”. The “logarithmic reduction in the population relative to t=0” value [4] was “approximately 4 log 10”.
